System: Male NMRI (SPF) mice fed a low-iron diet
Assay: Iron utilization in mouse model (low-iron diet)
Type: in vivo
Details: stomach tube, 2 mg iron/kg body weight/day, days 1-5 and 8-12; utilization on day 15 calculated from hemoglobin increase and body weight increase
Experimental: The excellent Fe utilizations that can be accomplished through the Fe complexes according to the invention were measured by means of the following mouse model.
Male NMRI (SPF) mice (approximately 3 weeks old) were fed a low-iron diet (approx. 5 ppm iron) for approximately 3 weeks. The iron complexes were then administered to them by means of a stomach tube (2 mg iron/kg body weight/day) for 2 times 5 days, with an interruption of 2 days (days 1-5 and 8-12). 6 mice were the control group (negative control) and were administered with water instead. Utilization on day 15 was calculated from the hemoglobin increase and the body weight increase in accordance with the formula
[formula] • 0.07=Factor for 70 ml blood per kg body weight (BW) • 0.0034=Factor for 0.0034 g Fe/g Hb • Hb1=Hemoglobin level (g/l) on day 1 • Hb2(3)=Hemoglobin level (g/l) on day 8 (or 15) • BW4=body weight (g) on day 1 • BW9(14)=body weight (g) on day 8 (or 15) • Hb1 Control=average hemoglobin level (g/l) on day 1 in the control group, • Hb2(3) Control=average hemoglobin level (g/l) on day 8 (or 15) in the control group, • BW4 Control=average body weight (g) on day 1 in the control group, • BW9(14) Control=average body weight (g) on day 8 (or 15) in the control group, • Fe Dos.=entire administered iron (mg Fe) over 5 or 10 days, • Fe ut.=(Hb2(3)*BW9(14)−Hb1*BW4)*0.07*0.0034 (mg Fe) • Δ Utilization=Fe tot. utilized (examined group)−Fe ut. Control group, utilized from food, (mg Fe)

Row | Substance | Utilization n 15 d (abs. %)
1 | Tris-(N-butyl-3-hydroxyisonicotinamide) iron(III) complex [Example 6] | 76 abs. %
2 | Tris-(3-hydroxy-N,N-dimethylisonicotinamide) iron(III) complex [Example 1] | 68 abs. %
3 | Tris-(3-hydroxy-N-(2-methoxyethyl)isonicotinamide) iron(III) complex [Example 7] | 76 abs. %
